PubChem BioAssay (NCI)
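Cells were grown in 96-well plates and exposed to each compound for 48 hours at five concentrations; endpoints were interpolated linearly between bracketing concentrations, or set to the highest concentration if not reached. TGI: concentration producing complete growth inhibition.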

Columns and labels:
Experiment in all cases: DTP human tumour cell line panel, 48 h
[1] = system: MALME-3M melanoma
[2] = system: SNB-19 CNS
[3] = system: NCI-H226 lung
[4] = system: OVCAR-4 ovarian
[5] = system: RPMI-8226 leukemia
[6] = system: HOP-92 NSCLC
[7] = system: OVCAR-5 ovarian
[8] = system: SF-295 CNS
[9] = system: UO-31 renal
[10] = system: HCT-15 colon
[11] = system: SK-OV-3 ovarian
[12] = system: U251 CNS
[13] = system: CCRF-CEM leukemia
[14] = system: HL-60(TB) leukemia
[15] = system: UACC-62 melanoma
[16] = system: 786-0 renal
[17] = system: CAKI-1 renal
[18] = system: K-562 leukemia
[19] = system: SF-539 CNS
[20] = system: KM12 colon
[21] = system: SK-MEL-5 melanoma
[22] = system: KM20L2 colon
[23] = system: IGROV1 ovarian
[24] = system: DMS 114 small cell lung
[25] = system: HCT-116 colon
[26] = system: SK-MEL-2 melanoma
[27] = system: LOX IMVI melanoma
[28] = system: NCI-H522 lung
[29] = system: LXFL 529 NSCLC
[30] = system: COLO 205 colon
[31] = system: SF-268 CNS
[32] = system: ACHN renal
[33] = system: MOLT-4 leukemia
[34] = system: TK-10 renal
[35] = system: OVCAR-3 ovarian
[36] = system: UACC-257 melanoma
[37] = system: SNB-75 CNS
[38] = system: NCI-H23 lung
[39] = system: A549 NSCLC
[40] = system: SN12C renal
[41] = system: M19-MEL melanoma
[42] = system: SK-MEL-28 melanoma
[43] = system: NCI-H460 lung
[44] = system: A498 renal
[45] = system: SW-620 colon
[46] = system: M14 melanoma
[47] = system: HOP-18 NSCLC
[48] = system: HT29 colon
[49] = system: OVCAR-8 ovarian
[50] = system: SR leukemia
[51] = system: SNB-78 CNS
[52] = system: HOP-62 NSCLC
[53] = system: HCC-2998 colon
[54] = system: DLD-1 colon
[55] = system: RXF 393 renal
[56] = system: EKVX NSCLC
[57] = system: DMS 273 small cell lung

## O=C(Nc1c(O)[nH]c(=S)[nH]c1=O)c1ccco1
[1]
  TGI: > 100 µM
[2]
  TGI: > 100 µM
[3]
  TGI: > 100 µM
[4]
  TGI: > 100 µM
[5]
  TGI: > 100 µM
[6]
  TGI: > 100 µM
[7]
  TGI: > 100 µM
[8]
  TGI: > 100 µM
[9]
  TGI: > 100 µM
[10]
  TGI: > 100 µM
[11]
  TGI: > 100 µM
[12]
  TGI: > 100 µM
[13]
  TGI: > 100 µM
[14]
  TGI: > 100 µM
[15]
  TGI: > 100 µM
[16]
  TGI: > 100 µM
[17]
  TGI: > 100 µM
[18]
  TGI: > 100 µM
[19]
  TGI: > 100 µM
[20]
  TGI: > 100 µM
[21]
  TGI: > 100 µM
[22]
  TGI: > 100 µM
[23]
  TGI: > 100 µM
[24]
  TGI: > 100 µM
[25]
  TGI: > 100 µM
[26]
  TGI: > 100 µM
[27]
  TGI: > 100 µM
[28]
  TGI: > 100 µM
[29]
  TGI: > 100 µM
[30]
  TGI: > 100 µM
[31]
  TGI: > 100 µM
[32]
  TGI: > 100 µM
[33]
  TGI: > 100 µM
[34]
  TGI: > 100 µM
[35]
  TGI: > 100 µM
[36]
  TGI: > 100 µM
[37]
  TGI: > 100 µM
[38]
  TGI: > 100 µM
[39]
  TGI: > 100 µM
[40]
  TGI: > 100 µM
[41]
  TGI: > 100 µM
[42]
  TGI: > 100 µM
[43]
  TGI: > 100 µM
[44]
  TGI: > 100 µM
[45]
  TGI: > 100 µM
[46]
  TGI: > 100 µM
[47]
  TGI: > 100 µM
[48]
  TGI: > 100 µM
[49]
  TGI: > 100 µM
[50]
  TGI: > 100 µM
[51]
  TGI: > 100 µM
[52]
  TGI: > 100 µM

## COC1CC(Br)(C#N)C1 (configuration not stated)
[1]
  TGI: > 100 µM
[4]
  TGI: > 100 µM
[5]
  TGI: > 100 µM
[6]
  TGI: > 100 µM
[7]
  TGI: > 100 µM
[8]
  TGI: > 100 µM
[9]
  TGI: > 100 µM
[53]
  TGI: > 100 µM
[10]
  TGI: > 100 µM
[11]
  TGI: > 100 µM
[12]
  TGI: > 100 µM
[54]
  TGI: > 100 µM
[55]
  TGI: > 100 µM
[14]
  TGI: > 100 µM
[15]
  TGI: > 100 µM
[16]
  TGI: > 100 µM
[17]
  TGI: > 100 µM
[18]
  TGI: > 100 µM
[19]
  TGI: > 100 µM
[20]
  TGI: > 100 µM
[21]
  TGI: > 100 µM
[22]
  TGI: > 100 µM
[23]
  TGI: > 100 µM
[24]
  TGI: > 100 µM
[25]
  TGI: > 100 µM
[26]
  TGI: > 100 µM
[30]
  TGI: > 100 µM
[31]
  TGI: > 100 µM
[33]
  TGI: > 100 µM
[34]
  TGI: > 100 µM
[35]
  TGI: > 100 µM
[38]
  TGI: > 100 µM
[39]
  TGI: > 100 µM
[41]
  TGI: > 100 µM
[42]
  TGI: > 100 µM
[46]
  TGI: > 100 µM
[47]
  TGI: > 100 µM
[48]
  TGI: > 100 µM
[49]
  TGI: > 100 µM
[50]
  TGI: > 100 µM
[51]
  TGI: > 100 µM
[56]
  TGI: > 100 µM
[52]
  TGI: > 100 µM

## CCc1cccc(C)c1NC(=O)CCc1n[nH]c(=S)o1
[1]
  TGI: > 100 µM
[2]
  TGI: > 100 µM
[3]
  TGI: > 100 µM
[4]
  TGI: > 100 µM
[5]
  TGI: 58.2 µM
[6]
  TGI: > 100 µM
[7]
  TGI: > 100 µM
[8]
  TGI: > 100 µM
[9]
  TGI: > 100 µM
[53]
  TGI: > 100 µM
[10]
  TGI: > 100 µM
[11]
  TGI: > 100 µM
[12]
  TGI: > 100 µM
[13]
  TGI: > 100 µM
[54]
  TGI: > 100 µM
[14]
  TGI: > 100 µM
[15]
  TGI: > 100 µM
[16]
  TGI: > 100 µM
[17]
  TGI: > 100 µM
[18]
  TGI: > 100 µM
[19]
  TGI: > 100 µM
[20]
  TGI: > 100 µM
[21]
  TGI: > 100 µM
[22]
  TGI: > 100 µM
[23]
  TGI: > 100 µM
[25]
  TGI: 31.1 µM
[28]
  TGI: > 100 µM
[29]
  TGI: > 100 µM
[30]
  TGI: > 100 µM
[31]
  TGI: > 100 µM
[32]
  TGI: > 100 µM
[33]
  TGI: > 100 µM
[34]
  TGI: > 100 µM
[35]
  TGI: > 100 µM
[36]
  TGI: > 100 µM
[37]
  TGI: > 100 µM
[38]
  TGI: > 100 µM
[40]
  TGI: > 100 µM
[41]
  TGI: > 100 µM
[42]
  TGI: > 100 µM
[43]
  TGI: > 100 µM
[44]
  TGI: > 100 µM
[45]
  TGI: 28 µM
[46]
  TGI: > 100 µM
[47]
  TGI: > 100 µM
[57]
  TGI: > 100 µM
[48]
  TGI: > 100 µM
[49]
  TGI: > 100 µM
[51]
  TGI: > 100 µM
[56]
  TGI: > 100 µM
[52]
  TGI: > 100 µM

## CC1(C)S[C@H](c2ccccc2C(=O)O)N[C@@H]1CC(=O)O
[2]
  TGI: > 100 µM
[3]
  TGI: > 100 µM
[4]
  TGI: > 100 µM
[5]
  TGI: > 100 µM
[8]
  TGI: > 100 µM
[10]
  TGI: > 100 µM
[12]
  TGI: > 100 µM
[13]
  TGI: > 100 µM
[54]
  TGI: > 100 µM
[55]
  TGI: > 100 µM
[14]
  TGI: > 100 µM
[15]
  TGI: > 100 µM
[16]
  TGI: > 100 µM
[18]
  TGI: > 100 µM
[19]
  TGI: > 100 µM
[20]
  TGI: > 100 µM
[21]
  TGI: > 100 µM
[23]
  TGI: > 100 µM
[24]
  TGI: > 100 µM
[25]
  TGI: > 100 µM
[27]
  TGI: > 100 µM
[28]
  TGI: > 100 µM
[29]
  TGI: > 100 µM
[30]
  TGI: > 100 µM
[31]
  TGI: > 100 µM
[32]
  TGI: > 100 µM
[33]
  TGI: > 100 µM
[36]
  TGI: > 100 µM
[37]
  TGI: > 100 µM
[38]
  TGI: > 100 µM
[39]
  TGI: > 100 µM
[40]
  TGI: > 100 µM
[41]
  TGI: > 100 µM
[42]
  TGI: > 100 µM
[43]
  TGI: > 100 µM
[44]
  TGI: > 100 µM
[45]
  TGI: > 100 µM
[46]
  TGI: > 100 µM
[47]
  TGI: > 100 µM
[57]
  TGI: > 100 µM
[48]
  TGI: > 100 µM
[49]
  TGI: > 100 µM
[50]
  TGI: > 100 µM
[51]
  TGI: > 100 µM
[56]
  TGI: > 100 µM
[52]
  TGI: > 100 µM
